Laboratory results reported in patent publication US10087148B2, “Quinazolines as biogenic amine transport modulators” (THE UNITED STATES OF AMERICA AS REPRESENTED BY THE …, priority 2014, dated 2018).
Entries after “also recorded” stand apart in the source; their conditions may differ.

Molecular target: dopamine transporter (DAT) (Rattus norvegicus (Rat), UniProt P23977)
Test: [3H]dopamine (DA) uptake inhibition in rat brain (caudate) synaptosomes
Format: biochemical
Conditions: for DA Uptake Emax / EC50: rat caudate synaptosomes, 5 nM [3H]dopamine, mean ± SD; for One-Site Emax / Two-Site Emax-1 / Two-Site Emax-2: [3H]DA uptake; for One-Site Emax: one-component fit; for Two-Site Emax-1 / Two-Site Emax-2: two-component fit; for Two-Site Emax-1: component 1; for Two-Site Emax-2: component 2
Description: Uptake inhibition assay for the dopamine transporter was conducted in rat brain synaptosomes as described elsewhere with minor modifications (Rothman et al., Synapse 39, 32-41 (2001)). Freshly removed caudate was homogenized in 10% ice-cold sucrose with 12 strokes of a hand-held Potter-Elvehjem homogenizer followed by centrifugation at 1000×g for 10 min. The supernatants were saved on ice and used immediately. Transporter activity was assessed using 5 nM [^3H]dopamine. The assay buffer was Krebs-phosphate buffer containing 154.4 mM NaCl, 2.9 mM KCl, 1.1 mM CaCl2, 0.83 mM MgCl2, 5 mM glucose, 1 mg/mL ascorbic acid, and 50 μM pargyline. The selectivity of the uptake assay for DAT was optimized by including 100 nM citalopram and 100 nM desipramine as blockers of SERT and NET in the sucrose solution and assay buffer. Uptake inhibition assays were conducted at 25° C. and were initiated by adding 100 μl of tissue to 900 μL assay buffer containing test drug and [^3H]dopamine. Test drugs were diluted in assay buffer containing 1 mg/mL bovine serum albumin. Nonspecific uptake was measured by incubating in the presence of 10 μM indatraline. The reactions were stopped after 15 minutes by rapid vacuum filtration with a cell harvester (BRANDEL) over GF/B filters (Whatman) presoaked in wash buffer maintained at 25° C. (10 mM Tris-HCl, pH 7.4/150 mM NaCl). Filters were rinsed with 6 mL wash buffer and retained tritium was quantified by a MicroBeta liquid scintillation counter (PerkinElmer) after overnight extraction in 0.6 mL of liquid scintillation cocktail (Cytoscint, ICN). The data from three experiments were pooled and fit to a dose-response curve equation (using Kaleidagraph), to yield an Emax and EC50 value.
All of the test compounds were synthesized as described herein. Next, 8-point dose-response curves were generated for each compound (1-20,000 nM) in the [^3H]DA uptake assay. The data from three experiments were pooled and fit to a dose-response curve equation (using KaleidaGraph; Synergy Software, Reading, Pa.) to yield an Emax and IC50 value. […] Selected compounds were also tested for their ability to inhibit [^3H]WIN35428 binding to rat caudate DAT.

dopamine transporter (DAT), sequence (P23977 whole entry): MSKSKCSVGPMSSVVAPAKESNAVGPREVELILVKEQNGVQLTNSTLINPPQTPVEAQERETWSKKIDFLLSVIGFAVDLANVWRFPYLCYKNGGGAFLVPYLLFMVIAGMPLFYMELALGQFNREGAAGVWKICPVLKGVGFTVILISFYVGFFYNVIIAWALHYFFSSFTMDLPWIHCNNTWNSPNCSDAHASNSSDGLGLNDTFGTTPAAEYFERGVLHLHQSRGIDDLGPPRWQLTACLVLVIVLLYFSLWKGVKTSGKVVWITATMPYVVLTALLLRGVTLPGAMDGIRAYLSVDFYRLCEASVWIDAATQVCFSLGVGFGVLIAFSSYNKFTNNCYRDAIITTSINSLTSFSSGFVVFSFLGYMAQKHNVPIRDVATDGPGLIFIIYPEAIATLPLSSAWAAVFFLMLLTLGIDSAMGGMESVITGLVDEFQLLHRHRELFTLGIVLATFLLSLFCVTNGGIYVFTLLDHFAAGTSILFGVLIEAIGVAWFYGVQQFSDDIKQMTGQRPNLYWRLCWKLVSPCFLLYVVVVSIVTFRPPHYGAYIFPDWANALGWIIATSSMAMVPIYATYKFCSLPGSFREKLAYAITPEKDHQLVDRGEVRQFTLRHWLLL

Row | DA Uptake Emax [% I] | EC50 [nM] | One-Site Emax [% I] | Two-Site Emax-1 [% I] | Two-Site Emax-2 [% I] | SMILES | Efficacy of [3H]DA (DAT) uptake inhibition, in words
1 | 77 ± 4 | 5.6 ± 2.1 | – | – | – | CN(C)c1ccc(-c2nc(NCC(c3ccccc3)c3ccc[nH]3)c3ccccc3n2)cc1 (stereo not drawn) [Compound 14, 2-(4-(dimethylamino)phenyl)-N-(2-phenyl-2-(1H-pyrrol-2-yl)ethyl)quinazolin-4-amine] | –
2 | 72 ± 2 | 71 ± 11 | – | – | – | CS(=O)(=O)Nc1ccc(-c2nc(NC(CCc3ccccc3)c3ccccc3)c3ccccc3n2)cc1 (stereo not drawn) [Compound 42, N-(4-(4-((1,3-diphenylpropyl)amino)quinazolin-2-yl)phenyl)methanesulfonamide] | –
3 | 72 ± 3 | 42 ± 10 | – | – | – | CN(C)c1ccc(-c2nc(NCC(Oc3ccccc3)c3ccccc3)c3ccccc3n2)cc1 (stereo not drawn) [Compound 48, 2-(4-(dimethylamino)phenyl)-N-(2-phenoxy-2-phenylethyl)quinazolin-4-amine] | –
4 | 70 ± 2 | 47 ± 10 | – | – | – | CS(=O)(=O)Nc1ccc(-c2nc(NCC(c3ccncc3)c3ccncc3)c3ccccc3n2)cc1 [Compound 35, N-(4-(4-((2,2-di(pyridin-4-yl)ethyl)amino)quinazolin-2-yl)phenyl)methanesulfonamide] | –
5 | 74 ± 2 | 6.7 ± 1.4 | – | – | – | CN(C)c1ccc(-c2nc(NCC(O)(c3ccccc3)c3ccccc3)c3ccccc3n2)cc1 [Compound 5, 2-((2-(4-(dimethylamino)phenyl)quinazolin-4-yl)amino)-1,1-diphenylethanol] | –
6 | 78 ± 4 | 20 ± 6 | – | – | – | CC(C)C(CNc1nc(-c2ccc(NS(C)(=O)=O)cc2)nc2ccccc12)c1ccccc1 (stereo not drawn) [Compound 45, N-(4-(4-((3-methyl-2-phenylbutyl)amino)quinazolin-2-yl)phenyl)methanesulfonamide] | –
7 | 71 ± 3 | 46 ± 10 | – | – | – | CN(C)c1ccc(-c2nc(NCC(c3ccccc3)C3CCCCC3)c3ccccc3n2)cc1 (stereo not drawn) [Compound 7, N-(2-cyclohexyl-2-phenylethyl)-2-(4-(dimethylamino)phenyl)quinazolin-4-amine] | –
8 | 100 ± 1 | 156 ± 12 | 100 ± 1.5 | 76 ± 54 | 27 ± 53 | CN(C)c1ccc(-c2nc(NCCc3ccccc3)c3ccccc3n2)cc1 [Compound 36, 2-(4-(dimethylamino)phenyl)-N-phenethylquinazolin-4-amine] | fully inhibits; also recorded: full-efficacy
9 | 90 ± 3 | 50 ± 10 | – | – | – | CS(=O)(=O)Nc1ccc(-c2nc(NCC(c3ccccc3)c3ccccn3)c3ccccc3n2)cc1 (stereo not drawn) [Compound 2, N-(4-(4-((2-phenyl-2-(pyridin-2-yl)ethyl)amino)quinazolin-2-yl)phenyl)methanesulfonamide] | –
10 | 71 ± 4 | 43 ± 13 | – | – | – | CS(=O)(=O)Nc1ccc(-c2nc(NCC(c3ccccc3)N3CCOCC3)c3ccccc3n2)cc1 (stereo not drawn) [Compound 19, N-(4-(4-((2-morpholino-2-phenylethyl)amino)quinazolin-2-yl)phenyl)methanesulfonamide] | –
11 | 89 ± 4 | 65 ± 18 | – | – | – | CN(C)c1ccc(-c2nc(NCC(c3ccccn3)c3ccc[nH]3)c3ccccc3n2)cc1 (stereo not drawn) [Compound 33, 2-(4-(dimethylamino)phenyl)-N-(2-(pyridin-2-yl)-2-(1H-pyrrol-2-yl)ethyl)quinazolin-4-amine] | –
12 | 67 ± 2 | 16 ± 3 | – | – | – | CC(CNc1nc(-c2ccc(NS(C)(=O)=O)cc2)nc2ccccc12)(c1ccccc1)c1ccccc1 [Compound 39, N-(4-(4-((2,2-diphenylpropyl)amino)quinazolin-2-yl)phenyl)methanesulfonamide] | –
13 | 77 ± 3 | 62 ± 15 | – | – | – | CN1CCN(C(CNc2nc(-c3ccc(NS(C)(=O)=O)cc3)nc3ccccc23)c2ccccc2)CC1 (stereo not drawn) [Compound 23, N-(4-(4-((2-(4-methylpiperazin-1-yl)-2-phenylethyl)amino)quinazolin-2-yl)phenyl)methanesulfonamide] | –
14 | 73 ± 2 | 25 ± 4 | – | – | – | CS(=O)(=O)Nc1ccc(-c2nc(NCC(c3ccccc3)c3cccnc3)c3ccccc3n2)cc1 (stereo not drawn) [Compound 25, N-(4-(4-((2-phenyl-2-(pyridin-3-yl)ethyl)amino)quinazolin-2-yl)phenyl)methanesulfonamide] | –
15 | 72 ± 2 | 40 ± 8 | – | – | – | CN(C)c1ccc(-c2nc(NC(Cc3ccccc3)c3ccccc3)c3ccccc3n2)cc1 (stereo not drawn) [Compound 40, 2-(4-(dimethylamino)phenyl)-N-(1,2-diphenylethyl)quinazolin-4-amine] | –
16 | 91 ± 4 | 30 ± 8 | – | – | – | CN1CCN(C(CNc2nc(-c3ccc(N(C)C)cc3)nc3ccccc23)c2ccccc2)CC1 (stereo not drawn) [Compound 22, 2-(4-(dimethylamino)phenyl)-N-(2-(4-methylpiperazin-1-yl)-2-phenylethyl)quinazolin-4-amine] | –
17 | 92 ± 4 | 112 ± 26 | – | – | – | CN(C)c1ccc(-c2nc(NCC(c3ccccc3)N3CCCC3)c3ccccc3n2)cc1 (stereo not drawn) [Compound 21, 2-(4-(dimethylamino)phenyl)-N-(2-phenyl-2-(pyrrolidin-1-yl)ethyl)quinazolin-4-amine] | –
18 | 67 ± 4 | 84 ± 25 | – | – | – | Cc1cc(NS(C)(=O)=O)ccc1-c1nc(NCC(c2ccncc2)c2ccncc2)c2ccccc2n1 [Compound 47, N-(4-(4-((2,2-di(pyridin-4-yl)ethyl)amino)quinazolin-2-yl)-3-methylphenyl)methanesulfonamide] | –
19 | 79 ± 3 | 24 ± 5 | – | – | – | CN(C)c1ccc(-c2nc(NCC(c3ccccc3)c3cccnc3)c3ccccc3n2)cc1 (stereo not drawn) [Compound 24, 2-(4-(dimethylamino)phenyl)-N-(2-phenyl-2-(pyridin-3-yl)ethyl)quinazolin-4-amine] | –
20 | 63 ± 2 | 43 ± 8 | – | – | – | CS(=O)(=O)Nc1ccc(-c2nc(NCC(c3ccccc3)c3ccc[nH]3)c3ccccc3n2)cc1 (stereo not drawn) [Compound 15, N-(4-(4-((2-phenyl-2-(1H-pyrrol-2-yl)ethyl)amino)quinazolin-2-yl)phenyl)methanesulfonamide] | –
21 | 86 ± 6 | 159 ± 54 | – | – | – | CS(=O)(=O)Nc1ccc(-c2nc(NCCc3ccccc3)c3ccccc3n2)cc1 [Compound 37, N-(4-(4-(phenethylamino)quinazolin-2-yl)phenyl)methanesulfonamide] | –
22 | 75 ± 5 | 15 ± 7 | 75 ± 5 | 57 ± 2 | 42 ± 4 | CN(C)c1ccc(-c2nc(NCC(c3ccccc3)N3CCOCC3)c3ccccc3n2)cc1 (stereo not drawn) [Compound 18, 2-(4-(dimethylamino)phenyl)-N-(2-morpholino-2-phenylethyl)quinazolin-4-amine] | partially inhibits
23 | 70 ± 3 | 100 ± 22 | – | – | – | CS(=O)(=O)Nc1ccc(-c2nc(NCC(c3ccccc3)n3ccnc3)c3ccccc3n2)cc1 (stereo not drawn) [Compound 12, N-(4-(4-((2-(1H-imidazol-1-yl)-2-phenylethyl)amino)quinazolin-2-yl)phenyl)methanesulfonamide] | –
24 | 78 ± 3 | 21 ± 5 | – | – | – | CN(C)c1ccc(-c2nc(NCC(c3ccncc3)c3ccncc3)c3ccccc3n2)cc1 [Compound 34, N-(2,2-di(pyridin-4-yl)ethyl)-2-(4-(dimethylamino)phenyl)quinazolin-4-amine] | –
25 | 88 ± 3 | 477 ± 75 | – | – | – | CS(=O)(=O)Nc1ccc(-c2nc(NCC(c3ccccc3)c3ncccn3)c3ccccc3n2)cc1 (stereo not drawn) [Compound 8, N-(4-(4-((2-phenyl-2-(pyrimidin-2-yl)ethyl)amino)quinazolin-2-yl)phenyl)methanesulfonamide] | –
26 | 84 ± 5 | 30 ± 10 | – | – | – | CC(C)C(CNc1nc(-c2ccc(N(C)C)cc2)nc2ccccc12)c1ccccc1 (stereo not drawn) [Compound 44, 2-(4-(dimethylamino)phenyl)-N-(3-methyl-2-phenylbutyl)quinazolin-4-amine] | –
27 | 70 ± 4 | 75 ± 22 | – | – | – | CN(C)c1ccc(-c2nc(NC(CCc3ccccc3)c3ccccc3)c3ccccc3n2)cc1 (stereo not drawn) [Compound 43, 2-(4-(dimethylamino)phenyl)-N-(1,3-diphenylpropyl)quinazolin-4-amine] | –
28 | 78 ± 3 | 39 ± 9 | – | – | – | CN(C)c1ccc(-c2nc(NCC(Cc3ccccc3)c3ccccc3)c3ccccc3n2)cc1 (stereo not drawn) [Compound 26, 2-(4-(dimethylamino)phenyl)-N-(2,3-diphenylpropyl)quinazolin-4-amine] | –
29 | 100 | 380 | – | – | – | Cc1ccc(-c2nc(NCC(c3ccccc3)c3cccc(Cl)n3)c3ccccc3n2)cc1 (stereo not drawn) [Compound 1, N-(2-(6-chloropyridin-2-yl)-2-phenylethyl)-2-(p-tolyl)quinazolin-4-amine] | –
